Source: patent publication US9095134B2, “Antimicrobial compositions containing cationic active ingredients and quaternary sugar derived surfactants” (priority 2010, dated 2015)

Legend:
S. aureus = assay: Time kill method (ASTM E 2315), log reduction of S. aureus; format: cell-based, S. aureus (ATCC 6538); conditions: 0.5% ADBAC Quat
Procedure: (§1) • (a) Determination of Time Kill Activity: The activity of antimicrobial compositions was measured by the time kill method [ASTM E 2315 Standard Guide for Assessment of Antimicrobial Activity Using a Time Kill Procedure], whereby the survival of challenged organisms exposed to an antimicrobial test composition is […] as a function of time. In this test, a diluted aliquot of the composition is brought into contact with a known population of test bacteria for a specified time period at a specified temperature. The test composition is neutralized at the end of the time period, which arrests the antimicrobial activity of the composition. The percent or, alternatively, log reduction from the original bacteria population is calculated. In general, the time kill method is known to those skilled in the art. In addition, comparative data on the foam profile of representative systems is shown. • (b) The composition can be tested at any concentration from 0-100%. The choice of which concentration to use is at the discretion of the investigator, and suitable concentrations are readily determined by those skilled in the art. All testing if performed in triplicate, the results are combined, and the average log reduction is reported. • (c) The choice of contact time period also is at the discretion of the investigator. Any contact time period can be chosen. Typical contact times range from 15 second to 5 minutes, with 30 seconds and 1 minute being typical contact times. The contact temperature also can be any temperature, typically room temperature, or about 25 degrees Celsius. • (d) The microbial suspension, or test inoculum, is prepared by growing a microbial culture on any appropriate solid media (e.g., agar). The microbial population then is washed from the agar with sterile physiological saline and the population of the microbial suspension is adjusted to about 10^8 colony forming units per ml (cfu/ml). • (e) The table below lists the test microbial cultures used in the following tests and includes the name of the bacteria, the ATCC (American Type Culture Collection) identification number, and the abbreviation for the name of the organism used hereafter.
(§2) S. aureus is a Gram positive bacteria, whereas, E. coli is a Gram negative bacteria.
(§3) The log reduction is calculated using the formula: Log reduction=log10(numbers control)−log10(test sample survivors). Foam Height Determination

E. coli = assay: Time kill method (ASTM E 2315), log reduction of E. coli; format: cell-based, Escherichia coli (ATCC 112229); conditions: 0.5% ADBAC Quat
Procedure: as §1, §2, §3

[1] = 1.95% w/w foam boosting agent, 1.25% Poly Trimoniumhydroxypropyl Cocoglucosides Chloride, 30 seconds exposure
[2] = 3.0% w/w foam boosting agent, 1.25% Poly Trimoniumhydroxypropyl Cocoglucosides Chloride, 30 seconds exposure
[3] = 4.2% w/w foam boosting agent, 1.25% Poly Trimoniumhydroxypropyl Cocoglucosides Chloride, 30 seconds exposure
[4] = quaternized sugar-derived surfactant 1.25% w/w, 1.95% alkyl dimethyl amine oxide, 30 second exposure

Alkyl Dimethyl Amine Oxide
S. aureus Log Reduction (S. aureus; [1]): >5.5 log | S. aureus Log Reduction (S. aureus; [2]): >5.5 log | S. aureus Log Reduction (S. aureus; [3]): >5.5 log | E. coli Log Reduction (E. coli; [1]): >5.5 log | E. coli Log Reduction (E. coli; [2]): >5.5 log | E. coli Log Reduction (E. coli; [3]): >5.5 log

Cocoglucosides Hydroxypropyl-trimonium Chloride [TM8610]
S. aureus Log Reduction (S. aureus; [4]): >5.0 log | E. coli Log Reduction (E. coli; [4]): >5.0 log

Lauridimonium-hydroxypropyl Laurylglucosides Chloride [L1210]
S. aureus Log Reduction (S. aureus; [4]): >5.0 log | E. coli Log Reduction (E. coli; [4]): >5.0 log

Lauridimonium-hydroxypropyl Cocoglucosides Chloride [L8610]
S. aureus Log Reduction (S. aureus; [4]): >5.0 log | E. coli Log Reduction (E. coli; [4]): >5.0 log

Laurylglucosides Hydroxypropyl-trimonium Chloride [TM1212]
S. aureus Log Reduction (S. aureus; [4]): >5.0 log | E. coli Log Reduction (E. coli; [4]): >5.0 log

Stearyldimonium-hydroxypropyl Laurylglucosides Chloride [S1218]
S. aureus Log Reduction (S. aureus; [4]): >5.0 log | E. coli Log Reduction (E. coli; [4]): >5.0 log
